In patent US20190209514A1, “Treatment of Bladder Cancer by Local Administration of Taxane Particles” (CRITITECH, INC., priority 2018, published 2019):
Several values for one entry are separate records, joined by “and”; a condition that tells them apart may be missing. Identical values can stand only once. Entries after “also recorded” stand apart in the source; their conditions may differ. Marks after values point to notes of the source that are not given here.

Tests used:
[1] = Docetaxel dissolution study, methanol/water 15/85, USP Apparatus II; format: physicochemical; details: for Docetaxel Dissolution time course: methanol/water 15/85
Method: The procedures used to determine the dissolution rates are as follows. […] Beads were transferred to a stainless steel mesh container and placed in the dissolution bath containing methanol/water 50/50 (v/v) media at 37° C., pH 7, and a USP Apparatus II (Paddle), operating at 75 rpm. At 10, 20, 30, 60, and 90 minutes, a 5 mL aliquot was removed, filtered through a 0.22 μm filter and analyzed on a UV/VIS spectrophotometer at 227 nm. Absorbance values of the samples were compared to those of standard solutions prepared in dissolution media to determine the amount of material dissolved. […] At 5, 15, 30, 60, 120 and 225 minutes, a 5 mL aliquot was removed, filtered through a 0.22 μm filter, and analyzed on a UV/VIS spectrophotometer at 232 nm. Absorbance values of the samples were compared to those of standard solutions prepared in dissolution media to determine the amount of material dissolved.
At 5, 15, 30, 60, 120 and 225 minutes, a 5 mL aliquot was removed, filtered through a 0.22 μm filter, and analyzed on a UV/VIS spectrophotometer at 232 nm. Absorbance values of the samples were compared to those of standard solutions prepared in dissolution media to determine the amount of material dissolved.

[2] = Particle size analysis (light obscuration / laser diffraction); format: physicochemical
Excerpt: The particle size of the taxane particles can be determined by a particle size analyzer instrument and the measurement is expressed as the mean diameter based on a number distribution (number). A suitable particle size analyzer instrument is one which employs the analytical technique of light obscuration, also referred to as photozone or single particle optical sensing (SPOS). A suitable light obscuration particle size analyzer instrument is the ACCUSIZER, such as the ACCUSIZER 780 SIS, available from Particle Sizing Systems, Port Richey, Fla. Another suitable particle size analyzer instrument is one which employs laser diffraction, such as the Shimadzu SALD-7101.
Particle size was analyzed by both light obscuration and laser diffraction methods. An Particle Sizing Systems AccuSizer 780 SIS system was used for the light obscuration method and Shimadzu SALD-7101 was used for the laser diffraction method.
The vials were vortexed for approximately 10 seconds and then sonicated in a sonic bath approximately 1 minute.
The vial was vortexed for approximately 10 seconds and then sonicated in a sonic bath for approximately 2 minutes. This suspension was used for laser diffraction analysis. Unused suspension was poured into a 125 mL particle-free plastic bottle, which was then filled to approximately 100 mL with filtered dispersant. The suspension was vortex for approximately 10 seconds and then sonicated in the sonic bath for approximately 2 minutes. This diluted suspension was used for light obscuration analysis.
A background test was first performed prior to analyzing particles on the AccuSizer 780 SIS. A new particle-free plastic bottle was filled with blank suspension solution by pumping from a reservoir, using a peristaltic pump, through a 0.22 μm Millipore filter and into the bottle. A background analysis was run to ensure the particle/mL count was below 100 particles/mL. […] Once the analysis was completed, the background data was removed and any measurement with less than four counts was removed.
To analyze particles on SALD-7101 using a batch cell, the analysis was started by choosing Manual Measurement. The refractive index was set as 1.5 to 1.7. The batch cell was filled with filtered dispersant just past the etched line. The blank measurement was ran. […] The measurements were executed, and the resulting graph with the highest level of confidence was selected; background was automatically accounted for.

[3] = tested on: UM-UC-3 bladder cancer cell line (ATCC-CRL-1749) tumors; test: Human bladder cancer (UM-UC-3) mouse xenograft study, tumor volume; format: in vivo, Hsd:Athymic Nude-Foxn1nu nude mice
Method: Tumor volume was determined with calipers. […] Animals were weighed 2×/week.
At day 18 after tumor implant, when average tumor size was between 50-325 mm^3, animals were sorted into five groups with equal average tumor sizes and were treated as shown in Table 8 below.
The second treatments (2nd cycle) occurred 7 days following first treatment (1st cycle) and third treatments (3rd cycle) occurred 14 days following the first treatment. The docetaxel solution IV was administered via the tail vein.
The test formulations were prepared as follows: • Vehicle (Control): Diluted 1 ml of the 1% Polysorbate 80/8% Ethanol in normal saline (0.9% Sodium Chloride for Injection) reconstitution solution with 1.5 mL of normal saline (0.9% Sodium Chloride for Injection, USP). […] Vigorously hand shook the vial with inversions for 1 minute. […] Vortexed to mix.
Tumor volumes were determined 2×/week for the duration of the study (61 days). The results of the study are shown in FIG. 4, FIG. 5, FIG. 6, FIG. 7, FIG. 8, FIG. 9, FIG. 10, FIG. 11, FIG. 12 & FIG. 13. […] These observations are also reflected in FIG. 5, FIG. 6, FIG. 7, FIG. 8, FIG. 9, FIG. 12 & FIG. 13.

[4] = IV docetaxel 3 cycles; of 7 tumors measured; day of death or euthanasia
[5] = tested on: UM-UC-3 bladder cancer cell line (ATCC-CRL-1749) tumors; test: Xenograft study: histology (H&E) and immunohistochemistry of tumor site tissue; format: in vivo, Hsd:Athymic Nude-Foxn1nu nude mice
[6] = BET specific surface area (SSA); format: physicochemical
Method: As used herein, the “specific surface area” (SSA) is the total surface area of the taxane particle per unit of taxane mass as measured by the Brunauer-Emmett-Teller (“BET”) isotherm by the following method: a known mass between 200 and 300 mg of the analyte is added to a 30 mL sample tube. […] The automated test is then carried out using the BETWIN® software package and the surface area of each sample is subsequently calculated. As will be understood by those of skill in the art, the “taxane particles” can include both agglomerated taxane particles and non-agglomerated taxane particles; since the SSA is determined on a per gram basis it takes into account both the larger agglomerated and smaller non-agglomerated taxane particles in the composition. The agglomerated taxane particles are defined herein as individual taxane particles that are formed by the agglomeration of smaller particles which fuse together forming the larger individual taxane particles, all of which occurs during the processing of the taxane particles. […]
A known mass between 200 and 300 mg of the analyte was added to a 30 mL sample tube. […] The automated test was then carried out using the BETWIN® software package and the surface area of each sample was subsequently calculated.

[7] = Bulk density (not tapped); format: physicochemical
Method: As used herein, the “specific surface area” (SSA) is the total surface area of the taxane particle per unit of taxane mass as measured by the Brunauer-Emmett-Teller (“BET”) isotherm by the following method: a known mass between 200 and 300 mg of the analyte is added to a 30 mL sample tube. […] The automated test is then carried out using the BETWIN® software package and the surface area of each sample is subsequently calculated. As will be understood by those of skill in the art, the “taxane particles” can include both agglomerated taxane particles and non-agglomerated taxane particles; since the SSA is determined on a per gram basis it takes into account both the larger agglomerated and smaller non-agglomerated taxane particles in the composition. The agglomerated taxane particles are defined herein as individual taxane particles that are formed by the agglomeration of smaller particles which fuse together forming the larger individual taxane particles, all of which occurs during the processing of the taxane particles. The BET specific surface area test procedure is a compendial method included in both the United States Pharmaceopeia and the European Pharmaceopeia. […]
The mass of the drug was measured to a nearest 0.1 mg, the volume was determined to the nearest 0.1 mL and the density calculated.

[8] = Paclitaxel dissolution study, methanol/water 50/50, USP Apparatus II; format: physicochemical; details: methanol/water 50/50 (v/v), 37° C., pH 7, paddle 75 rpm
Method: Beads were transferred to a stainless steel mesh container and placed in the dissolution bath containing methanol/water 50/50 (v/v) media at 37° C., pH 7, and a USP Apparatus II (Paddle), operating at 75 rpm. […] Absorbance values of the samples were compared to those of standard solutions prepared in dissolution media to determine the amount of material dissolved. […] Absorbance values of the samples were compared to those of standard solutions prepared in dissolution media to determine the amount of material dissolved.
Beads were transferred to a stainless steel mesh container and placed in the dissolution bath containing methanol/water 50/50 (v/v) media at 37° C., pH 7, and a USP Apparatus II (Paddle), operating at 75 rpm. At 10, 20, 30, 60, and 90 minutes, a 5 mL aliquot was removed, filtered through a 0.22 μm filter and analyzed on a U(V/V)is spectrophotometer at 227 nm. Absorbance values of the samples were compared to those of standard solutions prepared in dissolution media to determine the amount of material dissolved.

[9] = IV Docetaxel 3 cycles, 2 animals

For `CC(=O)O[C@@]12CO[C@@H]1C[C@H](O)[C@@]1(C)C(=O)[C@H](O)C3=C(C)[C@@H](OC(=O)[C@H](O)[C@@H](NC(=O)OC(C)(C)C)c4ccccc4)C[C@@](O)([C@@H](OC(=O)c4ccccc4)[C@H]21)C3(C)C` [Docetaxel Raw Material, docetaxel], the “Docetaxel Dissolution time course” value ([1]; 0 minutes) was 0.0%, the “Docetaxel Dissolution time course” value ([1]; 5 minutes) was 3.2% and the “Docetaxel Dissolution time course” value ([1]; 15 minutes) was 6.9%. The “Docetaxel Dissolution time course” value ([1]; 30 minutes) was 11.2%, the “Docetaxel Dissolution time course” value ([1]; 60 minutes) was 16.4% and the “Docetaxel Dissolution time course” value ([1]; 120 minutes) was 22.4%. The “Docetaxel Dissolution time course” value ([1]; 225 minutes) was 26.8%, the “Dissolution (30 min)” value ([1]; docetaxel, methanol/water 15/85 (v/v), 37° C., pH 7, paddle 75 rpm, 30 min) was 11% and the “Number Mean (um)” value [2] was 1.58 um. The “Volume Mean (um)” value [2] was 5.05 um.
With `CC(=O)O[C@@]12CO[C@@H]1C[C@H](O)[C@@]1(C)C(=O)[C@H](O)C3=C(C)[C@@H](OC(=O)[C@H](O)[C@@H](NC(=O)OC(C)(C)C)c4ccccc4)C[C@@](O)([C@@H](OC(=O)c4ccccc4)[C@H]21)C3(C)C` [Docetaxel, docetaxel] the tumor volume ([3]; Docetaxel Solution 30 mg/kg IV, 3 weekly cycles, to Day 61) was “Tumor volumes decreased initially; also recorded: subsequently increased; also recorded: somewhat effective at treating small tumors, but not very effective in treating large tumors”, the “Necropsy volume (mm^3), per animal” value ([3]; IV Docetaxel 3 cycles (B1, B3)) was 2872 mm^3 and 1652 mm^3 and the “tumors with docetaxel levels above the limit of quantitation (1 ng/g)” value [4] was 1. The “histology general observations (H&E)” value ([5]; Docetaxel Solution IV 3 cycles) was “many viable appearing tumor masses with some macrophage and occasional lymphocytic response along with some tumor necrosis”, the “Maximum tumor size on slide / size of viable nodules (mm), per animal” value ([5]; IV Docetaxel 3 cycles (cases B1, B3)) was 11 mm and 15 mm and the “Macrophage infiltrate density (CD68): animals graded Mild” value [5, 9] was 2. For the same molecule, the “Maximum size of viable invasive carcinoma on the slide: animals with >10 mm” value [5, 9] was 2*, the “Percentage of tumor showing necrosis: animals with 11-50%” value [5, 9] was 1 and the “Percentage of tumor showing necrosis: animals with 50-90%” value [5, 9] was 1.
With `CC(=O)O[C@H]1C(=O)[C@@]2(C)[C@H]([C@H](OC(=O)c3ccccc3)[C@]3(O)C[C@H](OC(=O)[C@H](O)[C@@H](NC(=O)c4ccccc4)c4ccccc4)C(C)=C1C3(C)C)[C@]1(OC(C)=O)CO[C@@H]1C[C@@H]2O` [Paclitaxel Raw Material, paclitaxel] the “Surface Area (m^2/g)” value ([6]; BET) was 10.4 m^2/g, the BET surface area ([6]; Example 1 results text) was 7.25 m^2/g and the “Number Mean (um)” value [2] was 1.16 um. The “Volume Mean (um)” value [2] was 1.29 um, the “Bulk Density” value [7] was 0.26 g/mL and the “Dissolution (30 min)” value [8] was 18%.
